Measurements as given in patent publication US11384060B2, “Amide compounds and use thereof” (ALPHALA CO., LTD., priority 2017, dated 2022).
Read-outs that look alike come from different tables or passages of the source.

Legend:
glucagon receptor (GCGR) = biological target: T1, glucagon receptor (GCGR) (Homo sapiens, UniProt P47871); experiment: I125-glucagon binding assay (competition, GCGR membrane fractions)
T1 construct: expressed in transfected cells; host or cells: CHO-K1 cells overexpressing GCGR (membrane fractions)
Method: I^125-Glucagon Binding Assay
The binding affinity of each compound was evaluated by a competition assay with I^125-glucagon. GCGR membrane fractions were obtained from GCGR overexpressed CHO-K1 cells as a stock of 1 mg/ml concentration. To evaluate the IC50 of compounds binding to GCGR, GCGR membrane fractions were treated with compounds with a serial dilution. The membrane fractions were diluted to 7.5 microgram per well in 70 microliter assay buffer contained 50 mM Tris pH 7.4 and 0.5% (w/v) bovine serum albumin and added into 96 wells plate. The membrane fractions were then mixed with 10 microliter diluted compounds. After 5 minutes pre-incubation, 20 microliter I^125 labeled glucagon (Perkin Elmer) was added into each well at the final concentration of 0.0625 nM. The assay mixtures were incubated at 25° C. for 30 minutes and then transferred onto the Millipore MultiScreen GF/B Plate coated with 0.5% (w/v) Polyethyleneimine. The filter plate was washed with wash buffer contained 50 mM Tris pH 7.4 for 2 times, 300 microliter each time. The residual isotope was detected by Hidex CHAMELEON V micro-beta counter and the IC50 value of each compound binding to GCGR was calculated with non-linear regression.

[1] = biological target: T2, glucagon receptor (GCGR) overexpressed CHO-K1 cells or human primary hepatocytes (Homo sapiens, UniProt P47871); experiment: Glucagon cAMP inhibition assay (Cisbio cAMP Dynamic 2 HTRF); type: cell-based
T2 construct: expressed in transfected cells; host or cells: GCGR overexpressed CHO-K1 cells or human primary hepatocytes (endogenous receptor)
Method: Glucagon cAMP Inhibition Assay
Downstream secondary messenger cAMP induced by glucagon was detected by Cisbio cAMP Dynamic 2 kit. Testing compounds were each prepared as a dimethyl sulfoxide (DMSO) solution at the concentration of 10 mM. To evaluate the potency of compounds in inhibiting the cAMP production, glucagon receptor (GCGR) overexpressed CHO-K1 cells or human primary hepatocytes were treated with compounds with a serial dilution. The cells were re-suspended in Hank's Balanced Salt solution (HBSS) contained 0.1% (w/v) bovine serum albumin and 800 nM 3-isobutyl-1-methylxanthine (IBMX) and seeded into low volume, 384 wells white plate. The diluted compounds were then added into the plate for 30 minutes pre-incubation where the final DMSO concentration was 1%. The cells were stimulated with glucagon at the concentration equaled to EC50 (an indicium of the concentration of a drug that gives half-maximal response) for 30 minutes at room temperature. After incubation, lysis buffer contain cAMP antibody and fluorescence acceptor were added into each well for additional 60 minutes incubation. Results were recorded by Molecular Devices SpectraMax Paradigm with the HTRF Detection Cartridges and the IC50 value of each compound in inhibiting the cAMP production was calculated with non-linear regression based on the amount of cAMP production.

[2] = competition with I125-glucagon 0.0625 nM, membrane fractions of GCGR overexpressed CHO-K1 cells
[3] = inhibition of glucagon (EC50 concentration) induced cAMP production

T1 sequence (P47871 26-477): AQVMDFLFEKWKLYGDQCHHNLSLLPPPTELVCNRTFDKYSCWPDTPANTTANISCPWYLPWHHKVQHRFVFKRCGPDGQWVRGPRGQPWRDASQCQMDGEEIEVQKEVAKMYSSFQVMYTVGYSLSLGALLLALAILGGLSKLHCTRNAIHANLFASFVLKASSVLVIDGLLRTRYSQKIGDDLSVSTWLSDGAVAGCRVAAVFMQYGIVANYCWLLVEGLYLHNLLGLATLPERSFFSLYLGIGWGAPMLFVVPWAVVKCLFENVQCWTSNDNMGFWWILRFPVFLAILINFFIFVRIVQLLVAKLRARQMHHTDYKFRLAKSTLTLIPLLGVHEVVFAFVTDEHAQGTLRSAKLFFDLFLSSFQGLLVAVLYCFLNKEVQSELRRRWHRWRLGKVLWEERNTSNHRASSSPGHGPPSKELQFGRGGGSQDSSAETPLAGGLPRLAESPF
T2 sequence (P47871 26-477): as above

Compound	IC50 (glucagon receptor (GCGR); [2]) [nM]	IC50 cAMP [1, 3] [nM]	IC50 (glucagon receptor (GCGR)) [nM]	IC50 cAMP [1] [nM]
CC[C@H](C)[C@@H](COc1ccc(-c2ccc(Cl)cc2Cl)cc1)Nc1cnc(C(=O)NCCC(=O)O)cn1 [Compound 9-2, 3-(5-(((2S,3 S)-1-((2′,4′-dichloro-[1,1′-biphenyl]-4-yl)oxy)-3-methylpentan-2-yl)amino)pyrazine-2-carboxamido)propanoic Acid]	363	427	–	–
CC(C)[C@@H](COc1ccc(-c2cc3ccccc3o2)c(Cl)c1)Nc1ccc(C(=O)NC[C@@H](O)C(=O)O)cc1 [Compound 3-6, (R)-3-(4-(((S)-1-(4-(benzofuran-2-yl)-3-chlorophenoxy)-3-methylbutan-2-yl)amino)benzamido)-2-hydroxypropanoic Acid]	184	9291	–	–
CCCC[C@@H](Cc1noc(-c2ccc(C(C)(C)C)cc2)n1)Nc1ccc(C(=O)NCCC(=O)O)cc1 [Compound 21-1, (S)-3-(4-((1-(5-(4-(tert-butyl)phenyl)-1,2,4-oxadiazol-3-yl)hexan-2-yl)amino)benzamido)propanoic Acid]	803	170.4	–	–
CCCC[C@@H](COc1ccc(-c2ccc(C(F)(F)F)cc2)cc1)Nc1ccc(C(=O)NCc2nnn[nH]2)cc1 [Compound 1-16, (S)—N-((1H-tetrazol-5-yl)methyl)-4-((1-((4′-(trifluoromethyl)-[1,1′-biphenyl]-4-yl)oxy)hexan-2-yl)amino)benzamide]	52	948.8	–	–
CC(C)(C)c1nnc(-c2ccc(OC[C@@H](Nc3ccc(C(=O)NCCC(=O)O)cc3)c3ccc(-c4ccc(Cl)cc4Cl)cc3)nc2)o1 [Compound 15-34, (S)-3-(4-((2-((5-(5-(tert-butyl)-1,3,4-oxadiazol-2-yl)pyridin-2-yl)oxy)-1-(2′,4′-dichloro-[1,1′-biphenyl]-4-yl)ethyl)amino)benzamido)propanoic Acid]	–	–	3000	4558
CC(C)[C@@H](COc1ccc(-c2ccc(C(F)(F)F)cc2Cl)nc1)Nc1ccc(C(=O)NCCC(=O)O)cn1 [Compound 11-1, (S)-3-(6-((1-((6-(2-chloro-4-(trifluoromethyl)phenyl)pyridin-3-yl)oxy)-3-methylbutan-2-yl)amino)nicotinamido)propanoic Acid]	1740	8711	–	–
CC(C)[C@@H](COc1ccc(-c2ccc(N(C)C)cc2)cc1)Nc1ccc(C(=O)NCCC(=O)O)cc1 [Compound 1-12, (S)-3-(4-((1-((4′-(dimethylamino)-[1,1′-biphenyl]-4-yl)oxy)-3-methylbutan-2-yl)amino)benzamido)propanoic Acid]	224	414.3	–	–
CC[C@H](C)[C@@H](COc1ccc(-c2ccc(Cl)cc2Cl)c(OC)c1)Nc1ccc(C(=O)NCCC(=O)O)cc1 [Compound 13-2, 3-(4-(((2S,3S)-1-((2′,4′-dichloro-2-methoxy-[1,1′-biphenyl]-4-yl)oxy)-3-methylpentan-2-yl)amino)benzamido)propanoic Acid]	92	254	–	–
CC[C@H](C)[C@@H](COc1ccc(-c2ccc(C(F)(F)F)cc2)c(F)c1)Nc1ccc(C(=O)NCCC(=O)O)cc1 [Compound 8-14, 3-(4-(((2S,3S)-1-((2-fluoro-4′-(trifluoromethyl)-[1,1′-biphenyl]-4-yl)oxy)-3-methylpentan-2-yl)amino)benzamido)propanoic Acid]	251	250	–	–
CC(C)C[C@@H](COc1cnc(-c2ccc(C(F)(F)F)cc2Cl)nc1)Nc1ccc(C(=O)NCCC(=O)O)cc1 [Compound 12-9, (S)-3-(4-((1-((2-(2-chloro-4-(trifluoromethyl)phenyl)pyrimidin-5-yl)oxy)-4-methylpentan-2-yl)amino)benzamido)propanoic Acid]	501	19185	–	–
CC[C@H](C)[C@H](Nc1ccc(C(=O)NCCC(=O)O)cc1)C(=O)Nc1ccc(-c2cc3ccccc3o2)cc1 [Compound 23-31, 3-(4-(((2S,3S)-1-((4-(benzofuran-2-yl)phenyl)amino)-3-methyl-1-oxopentan-2-yl)amino)benzamido)propanoic Acid]	–	–	294	4145
CC[C@H](C)[C@@H](COc1ccc(-c2ccc(Cl)cc2Cl)c(F)c1)Nc1ccc(C(=O)NCCC(=O)O)cc1 [Compound 8-11, 3-(4-(((2S,3S)-1-((2′,4′-dichloro-2-fluoro-[1,1′-biphenyl]-4-yl)oxy)-3-methylpentan-2-yl)amino)benzamido)propanoic Acid]	51	269.1	–	–
CCCC[C@@H](COc1ccc(-c2ccc(C(F)(F)F)cc2)c(OC)c1)Nc1ccc(C(=O)NCCC(=O)O)cc1 [Compound 13-11, (S)-3-(4-((1-((2-methoxy-4′-(trifluoromethyl)-[, 1′-biphenyl]-4-yl)oxy)hexan-2-yl)amino)benzamido)propanoic Acid]	47	118	–	–
CC[C@H](C)[C@@H](COc1ccc(-c2ccc(C(F)(F)F)cc2F)nc1)Nc1ccc(C(=O)NCCC(=O)O)cc1 [Compound 10-14, 3-(4-(((2S,3S)-1-((6-(2-fluoro-4-(trifluoromethyl)phenyl)pyridin-3-yl)oxy)-3-methylpentan-2-yl)amino)benzamido)propanoic Acid]	306	497.1	–	–
CC(C)[C@@H](COc1nnc(-c2ccc(C(F)(F)F)cc2F)o1)Nc1ccc(C(=O)NCCC(=O)O)cc1 [Compound 22-17]	–	–	> 30000	>30000
CC[C@H](C)[C@@H](COc1ccc(-c2ccc(F)cc2F)cn1)Nc1ccc(C(=O)NCCS(=O)(=O)O)cc1 [Compound 15-21, 2-(4-(((2S,3S)-1-((5-(2,4-difluorophenyl)pyridin-2-yl)oxy)-3-methylpentan-2-yl)amino)benzamido)ethane-1-sulfonic Acid]	–	–	5280	>30000
CCCC[C@@H](COc1ccc(-c2ccc(C(F)(F)F)cc2Cl)c(C)n1)Nc1ccc(C(=O)NCCC(=O)O)cc1 [Compound 18-2, (S)-3-(4-((1-((5-(2-chloro-4-(trifluoromethyl)phenyl)-6-methylpyridin-2-yl)oxy)hexan-2-yl)amino)benzamido)propanoic Acid]	–	–	42	49
CCCC[C@@H](COc1nnc(-c2ccc(C(C)(C)C)cc2)o1)Nc1ccc(C(=O)NCCC(=O)O)cc1 [Compound 22-18, (S)-3-(4-((1-((5-(4-(tert-butyl)phenyl)-1,3,4-oxadiazol-2-yl)oxy)hexan-2-yl)amino)benzamido)propanoic Acid]	–	–	> 30000	>30000
CCOC(=O)CCNC(=O)c1ccc(N[C@H](C(=O)Nc2ccc(-c3cc4ccccc4o3)cc2)C(C)C)cc1 [Compound 23-32, Ethyl (S)-3-(4-((1-((4-(benzofuran-2-yl)phenyl)amino)-3-methyl-1-oxobutan-2-yl)amino)benzamido)propanoate]	–	–	5180	92.8
CC(C)COC[C@H](Cc1ccc(-c2cc(F)c(F)c(F)c2)cc1)Nc1ccc(C(=O)NCCC(=O)O)cc1 [Compound 19-31, (S)-3-(4-((1-isobutoxy-3-(3′,4′,5′-trifluoro-[1,1′-biphenyl]-4-yl)propan-2-yl)amino)benzamido)propanoic Acid]	–	–	500	1341
CCCCC[C@H](Cc1ccc(-c2cc3ccccc3o2)cc1)Nc1ccc(C(=O)NCCC(=O)O)cc1 [Compound 19-6, (R)-3-(4-((1-(4-(benzofuran-2-yl)phenyl)heptan-2-yl)amino)benzamido)propanoic Acid]	–	–	158	632
CC[C@H](C)[C@@H](COc1ccc(-c2cc3ccccc3o2)cc1)Nc1ccc(C(=O)NC[C@@H](O)C(=O)O)cc1 [Compound 1-9, (R)-3-(4-(((2S,3S)-1-(4-(benzofuran-2-yl)phenoxy)-3-methylpentan-2-yl)amino)benzamido)-2-hydroxypropanoic Acid]	260	3600	–	–
CCCC[C@@H](COc1ccc(-c2ccc(Cl)cc2Cl)c(F)c1)Nc1ccc(C(=O)NCCC(=O)O)cc1 [Compound 8-16, (S)-3-(4-((1-((2′,4′-dichloro-2-fluoro-[1,1′-biphenyl]-4-yl)oxy)hexan-2-yl)amino)benzamido)propanoic Acid]	89	135	–	–
